# Test results taken from publication PMC4520450, “Procyanidins Negatively Affect the Activity of the Phosphatases of Regenerating Liver” (PLoS ONE, 2015).
# Experiments:
# [1] = molecular target: T1, PP2A (Homo sapiens, UniProt P67775); test: DiFMUP assay for PP2A; assay type: biochemical; conditions: 0.05 U PP2A, 30 min preincubation, 25°C, no BSA, mean ± SEM (n = 3–5), read-out: IC50 (Ki) PP2A
# T1 construct: purified from human red blood cells; purchased Merck Millipore; host or cells: human red blood cells
# Experimental: Fig 2 Effect of polyphenolic compounds 8 (A), 9 (B), 10 (C) and 11 (D) on the phosphatase activity of PRL-1, PRL-2, PRL-3, PP1, and PP2A. Proteins were incubated for 30 min with 0–1000 μM of the corresponding procyandin 8–11. Phosphatase activity was measured in the presence of DiFMUP at 25°C using the concentration corresponding to the KM of each protein. The KM for PRLs was determined separately (PRL-3 = 21 μM, PRL-2 and PRL-1 = 24 μM). The KM for PP1 (91 μM) and for PP2A (100 μM) was taken from the literature. Protein concentrations are 50 nM for all PRLs and 2 mU for PP1 and 0.05 U for PP2A (see the Experimental Procedures). Phosphatase activity in the absence of inhibitors was set as 100%. Data represent means ± standard errors of the mean (n = 3–5).
# BSA, which is usually supplemented to the assay buffer for stabilizing the PPs was however excluded, as BSA is known to form complexes with polyphenolic compounds [40–42] and thus would decrease the concentrations of the inhibitor in the assay. […] In contrast, the phosphatase activity of PP2A was suppressed to a much lesser extent with weak (for trimer 9 and hexamer 11) and strong statistical significance (dimer 8 and tetramer 10). Thus our results corroborate the data reported previously.
# Chemicals and vendors were as follows: Synthesis of Procyanidins (dimer to dodecamer) was done as previously reported. EGCG, EGC, ECG and EC were synthesized as previously reported or purchased from Sigma. (+)-Catechin and 3-(4,5-dimethylthiazol-2-yl)-2,5-diphenyltetrazolium bromide (MTT) were obtained from Sigma. 6,8-Difluoro-4-Methylumbelliferyl Phosphate (DiFMUP), propidium iodide and calcein AM were from lifescience technologies. Cell dissociation solution (10X) was purchased from amsbio. PP1c (recombinant from E. coli) was purchased from NewEngland Biolabs and PP2A (purified from human red blood cells, contains different subunits according to manufacturer) from Merck Millipore. Transwell plates (BRANDplates) and insert stripes for the migration assay were purchased from Brand GmbH. Black 96 well plates (96F Nunclon Delta) were purchased from Thermo Scientific. Transparent 96 well assay plates with UV transparent bottom were purchased from Corning Inc. Wound healing experiments were carried out with μ-dish 35 mm culture inserts, which were purchased from Ibidi.
# DiFMUP assay for PP2A: In a final reaction volume of 100 μL PP2A (0.05 U final concentration, according to manufacturer’s instructions) were incubated with decreasing concentrations of the inhibitory polyphenols for 30 minutes at 25°C. The assay buffer contained 50 mM TrisCl (pH 7.5), 250 mM NaCl, 0.1 mM EDTA, 1 mM MnCl2, and 2 mM dithiothreitol (DTT). […] Monitoring of the fluorescent dephosphorylation product was monitored and data analyzed as described above.
# [2] = system: HEK293 cells (empty vector, PRL-1 and PRL-3 overexpressing); test: Cytotoxicity by flow cytometry with propidium iodide; assay type: cell-based; conditions: 24 h
# Source text: To study the effects of procyanidins on PRL-1 and PRL-3 in cells, the trimeric catechin (procyanidin C2, 9) was chosen as a representative example due to its strong inhibitor activity in vitro toward both PRL-s and its smaller size compared to the higher oligomers, which could influence cell permeability. HEK293 cells stably overexpressing PRL-1 and PRL-3 were chosen as model cell line. As a control cell line, HEK293 cells transfected with the empty vector were utilized (see the Experimental Procedures). To avoid false positive results due to cell death, first cell viability was studied in a concentration dependent manner by using flow cytometry. Therefore, cells were treated with different concentrations of compound 9 for 24 h, harvested, and then the ratio of living to dead cells was determined using propidium iodide (Fig 5).
# Fig 5 Cytotoxicity of procyanidin C2 (9) in HEK293 cells. Cells were treated with 50, 150 or 300 μM of 9 in the growth medium for 24 h. Cells were harvested, resuspended in PBS buffer and incubated with propidium iodide (1 mg/mL) for 5 min on ice. 10,000 events were set for the number of living cells. The number of living cells was divided by the number of total cells counted and given as percentage of cell survival. Data represent means ± standard errors of the mean (n = 3).
# Fig 7 A) Cytotoxicity of procyanidin B3 (8) in HEK293 cells. Cells were treated with 50, 75 or 100 μM of 8 in the growth medium for 24 h. Cells were harvested, resuspended in PBS buffer and incubated with propidium iodide (1 mg/mL) for 5 min on ice. 10,000 events were set for the number of living cells. The number of living cells was divided by the number of total cells counted and given as percentage of cell survival. Data represent means ± standard errors of the mean (n = 3). B) Wound healing abilities of PRL-1 or PRL-3 overexpressing or empty vector control HEK293 cell lines were analyzed in the presence of compound 8 or medium only. Cells were seeded at a concentration of 800,000 cells per insert and procyanidin B3 (8) was added at a concentration of 50 and 75 μM. Speed of migration is shown for combined data from different replicates, as mean ± SD (n = 40–77). Two-sided t-tests with Welsh correction were performed for p < 0.05. ns = not significant;***: < 0.001; **: < 0.01; *: < 0.05.
# Flow cytometry was used to determine the ratio of living to dead cells compared to the control. HEK293 empty vector and PRL-3 overexpressing cells were seeded in a transparent 6-well plate with 400,000 cells/well in DMEM medium without Phenol red, supplemented with 10% FBS, 1% glutamine and 0.2% hygromycin and blasticidin. For induction of PRL-3 expression, 0.1% tetracycline was added. After 24 hours incubation at 37°C, procyanidins 8 or 9 dissolved in growth medium and growth medium as a control were added to the respective wells in the indicated final concentrations and incubated for another 24 hours. Then, the medium was removed and collected in Eppendorf tubes, centrifuged for 5 min at 500 rpm and the supernatant removed. Then 1 mL of PBS (10%) was added to each well and the cells detached with a cell scraper. […] After thorough mixing the cell suspension was injected into a LSR- Fortessa Bench Top Analyzer (Beckton Dickinson) and the number of living and dead cells counted. […] The number of living cells was divided by the number of total cells counted and given as percentage of cell survival.
# T1 sequence (P67775 whole entry): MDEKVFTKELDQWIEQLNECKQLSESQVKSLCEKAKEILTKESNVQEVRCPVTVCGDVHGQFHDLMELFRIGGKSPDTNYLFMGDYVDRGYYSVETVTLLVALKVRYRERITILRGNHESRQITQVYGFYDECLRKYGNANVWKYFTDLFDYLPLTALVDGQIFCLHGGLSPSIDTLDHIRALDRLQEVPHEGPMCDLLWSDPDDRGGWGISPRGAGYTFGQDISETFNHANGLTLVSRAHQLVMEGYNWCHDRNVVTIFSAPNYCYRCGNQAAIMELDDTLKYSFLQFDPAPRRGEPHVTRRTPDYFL
# T1 sequence (P30153 2-589 partner limits assumed): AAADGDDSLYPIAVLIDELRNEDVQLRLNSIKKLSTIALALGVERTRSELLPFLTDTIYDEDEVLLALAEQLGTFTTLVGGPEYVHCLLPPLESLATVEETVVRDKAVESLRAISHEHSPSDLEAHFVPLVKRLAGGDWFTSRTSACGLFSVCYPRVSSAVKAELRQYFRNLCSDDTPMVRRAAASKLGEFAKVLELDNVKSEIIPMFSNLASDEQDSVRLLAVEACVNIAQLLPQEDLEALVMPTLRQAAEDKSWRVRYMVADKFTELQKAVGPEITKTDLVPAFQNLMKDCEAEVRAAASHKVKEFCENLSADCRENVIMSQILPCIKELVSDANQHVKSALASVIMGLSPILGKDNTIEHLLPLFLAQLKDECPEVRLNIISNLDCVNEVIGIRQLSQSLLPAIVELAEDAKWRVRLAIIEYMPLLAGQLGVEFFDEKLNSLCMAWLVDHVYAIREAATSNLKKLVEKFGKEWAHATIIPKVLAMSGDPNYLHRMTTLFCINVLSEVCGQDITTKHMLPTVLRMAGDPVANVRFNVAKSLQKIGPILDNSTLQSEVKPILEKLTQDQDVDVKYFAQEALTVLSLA
SMILES,IC50 [1] [µM],"cytotoxic effects ([2]; 50, 75 and 100 μM, all three cell lines)",concentration up to which not cytotoxic [2],concentration up to which not cytotoxic ([2]; human)
"Oc1cc(O)c2c(c1)O[C@H](c1ccc(O)c(O)c1)[C@@H](O)[C@@H]2c1c(O)cc(O)c2c1O[C@H](c1ccc(O)c(O)c1)[C@@H](O)C2 [Procyanidin B3 (8), Procyanidin B3]",> 1000,did not show any cytotoxic effects,at least 100 μM,–
"Oc1cc(O)c2c(c1)O[C@H](c1ccc(O)c(O)c1)[C@@H](O)[C@@H]2c1c(O)cc(O)c2c1O[C@H](c1ccc(O)c(O)c1)[C@@H](O)[C@@H]2c1c(O)cc(O)c2c1O[C@H](c1ccc(O)c(O)c1)[C@@H](O)C2 [Procyanidin C2 (9), Procyanidin C2]",213 ± 72,–,–,up to 50 μM
